Assay results as given in article PMC12598616, “Design and optimization of caspase-1-responsive fluorescent probes for pyroptosis imaging and anti-pyroptosis drug screening” (Chemical Science, 2025).

Tests used:
caspase-3 = assay: Selectivity of probes: caspase-3; type: biochemical, human; conditions: caspase-3 1 μg/mL, 37 °C, 2 h, λex 510 nm, λem 585 nm
Text: The resin used for SPPS was purchased from GL Biochem (Shanghai, China). Lipopolysaccharide (LPS, L2630), Nigericin and ATP (11140965001) were purchased from Merck (Shanghai, China) and Invitrogen (Shanghai, China), respectively. Cell culture plates were sourced from Wuxi NEST Biotechnology. Recombinant human caspase-1, caspase-3, caspase-4, and caspase-8 were obtained from Abcam and MCE (Shanghai, China). Anti-cleaved caspase-1 antibody, anti-GAPDH antibody, and goat anti-Rabbit/anti-mouse lgG/HRP were purchased from CST (USA) and Beyotime […]
(Shanghai, China). […]
Medical College (ethical approval number ZJCLA-IACUC-20011003). […]
To investigate the sensitivity of the probes for caspase-1, varying concentration of caspase-1 (0, 0.2, 0.4, 0.6, 0.8, 1.0, 1.25, 1.5, 1.75, 2, 2.5, 3 U/mL) were incubated with FPy1 (5 μM), YPy1 (5 μM) and WPy1 (5 μM) respectively in caspase-1 assay buffer (50 mM HEPES, 50 mM NaCl, 0.1 % chaps, 5 % glycerol, 10 mM DTT, 10 mM EDTA) at 37 °C for 2 hours. Fluorescence spectra were recorded using Hitachi F-2700 spectrophotometer with an excitation at 510 nm (Photomultiplier voltage 700 V; Slit widths ex: 10 nm and em =5.0 nm). […] The limit of detection (LoD) was calculated from 3σ/k, in which σ represents the standard deviation of 15 blank measurements. […]
10 nm and em =5.0 nm). The fluorescence intensity of FPy1, YPy1 and WPy1 at 585 nm were plotted separately against […]

Cas-1 in THP-1 cells = assay: Confocal fluorescence imaging of Cas-1 in THP-1 cells; type: cell-based; conditions: for intracellular fluorescence intensity, ATP stimulation / intracellular fluorescence intensity, Nig stimulation: LPS 1 μg/mL 4 h, probe 5 μM 1 h; for intracellular fluorescence intensity, ATP stimulation: then ATP 2 mM 0, 1, 2 h; for intracellular fluorescence intensity, Nig stimulation: then Nig 10 μM 0, 1, 2 h
Experimental: To assess the capability of FPy1 and YPy1 to monitor endogenous Cas-1, the classic NLRP3 inflammasome-mediated Cas-1 activation model was established in THP-1 cells. THP-1 cells were initially stimulated with LPS (1 μg mL^−1) for 4 h to prime the production of NLRP3 inflammasome-associated proteins. Subsequently, the cells were stimulated with Nigericin (Nig, 10 μM) or ATP (2 mM) for various durations to induce the activation of Cas-1 and the pyroptosis-related pathway. The THP-1 cells were further stained with FPy1 or Ypy1 (5 μM) for 1 h and imaged (Fig. 3a). […] Western blot (WB) analysis confirmed that, regardless of whether Nig or ATP was used as the stimulant, the level of activated Cas-1 was consistent with the fluorescence imaging results (Fig. S8a–d). […] Therefore, FPy1 may be a more suitable candidate for monitoring low caspase-1 levels in subsequent imaging studies. […] To investigate the distribution of FPy1 within cells, THP-1 cells were co-stained with FPy1 and commercially available organelle-tracking dyes, including Mito-Tracker Green (mitochondria), Golgi-Tracker Green (Golgi apparatus), Lyso-Tracker Green (lysosomes) and ER-Tracker Green (endoplasmic reticulum). All dyes were imaged in the green fluorescence channel to avoid overlap with the red emission of FPy1 (Fig. 3f–i). […] The corresponding Pearson's correlation coefficients for mitochondria, Golgi apparatus, lysosomes, and endoplasmic reticulum were 0.4954, 0.4320, 0.5682, and 0.4448, respectively. […] To further confirm the specificity of FPy1 for Cas-1 imaging in living cells, THP-1 cells with Cas-1 knockdown via siRNA were constructed. […]
Intracellular imaging with FPy1 in THP-1 cells
THP-1 cells were seeded in dishes and cultured overnight. After stimulation with LPS (1 μg/mL in RPMI 1640 medium) for 4 hours, the cells were further treated with Nig (10 μM) or ATP (2 mM) for 0, 1, 2 hours. The medium was then replaced with fresh medium with FPy1 (5 μM), and cells were incubated at 37 °C for 1 hour before being washed twice […]
with PBS. […]
After washing, the THP-1 cells were separately incubated with commercially available dyes targeting mitochondria (Mito-Tracker Green), lysosomes (Lyso-Tracker Green), endoplasmic reticulum (ER-Tracker Green), and Golgi apparatus (Golgi-Tracker Green) for 30 minutes. […]
Nucleus pulposus spheroid cultivation […]
Intracellular imaging in nucleus pulposus cells and 3D cell spheroids
The primary nucleus pulposus cells or 3D cell spheroids were seeded in dishes and cultured overnight. […]

Substance | fluorescence response to caspase-3 (caspase-3) | fluorescence increase relative to YPy1 (Cas-1 in THP-1 cells; 2 h of Nig or ATP stimulation, probe 5 μM) | intracellular fluorescence intensity, ATP stimulation (Cas-1 in THP-1 cells) | intracellular fluorescence intensity, Nig stimulation (Cas-1 in THP-1 cells)
–FLTDG– [FPy1, RhoB donor, hNR quencher] | almost no response | slightly higher than that of YPy1 | increased with prolonged stimulation time | increased with prolonged stimulation time
–YVADG– [YPy1, caspase-1-responsive FRET probe with recognition peptide –YVADG–; RhoB donor, hNR quencher] | almost no response | – | increased with prolonged stimulation time | increased with prolonged stimulation time
